Assay results taken from PMC11909988 (BMC Cancer, 2025).
Entries after “also recorded” stand apart in the source; their conditions may differ.

Assays:
D2HGlo = D2HGlo (Achromobacter denitrificans, UniProt A0A6N0JVZ6); experiment: Ligand binding and selectivity of purified D2HGlo; settings: for response of D2HGlo (FRET ratio) to metabolite: concentrations up to 100 µM
[1] = tested on: IDH1 wildtype U87MG cells; experiment: FRET imaging of D2HGlo cellular probes in IDH1 wildtype glioma cells; assay type: cell-based, human; settings: for acute change of Cyto-D2HGlo FRET ratio: approximately 5.5 min
[2] = tested on: IDH1-R132H mutant U87MG cells; experiment: D-2-HG in cell culture supernatant measured with D2HGlo, mutant cells; assay type: cell-based, human; settings: 48 h
[3] = tested on: IDH1-R132H mutant U87MG cells; experiment: FRET imaging of D2HGlo cellular probes in IDH1 mutant glioma cells; assay type: cell-based, human
mutant IDH1 = settings: newly diagnosed and advanced cancer; cited from earlier work

Sequence of D2HGlo (A0A6N0JVZ6 1-238, other chains not shown): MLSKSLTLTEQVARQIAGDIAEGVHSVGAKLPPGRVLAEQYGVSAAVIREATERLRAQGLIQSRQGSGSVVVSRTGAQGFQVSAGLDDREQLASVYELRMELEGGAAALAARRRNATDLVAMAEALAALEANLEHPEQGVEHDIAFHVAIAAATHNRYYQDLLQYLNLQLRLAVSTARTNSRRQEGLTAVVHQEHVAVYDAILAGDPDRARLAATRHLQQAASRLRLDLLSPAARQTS

N[C@@H](CCC(=O)O)C(=O)O [Glutamate, L-glutamic acid]
response of D2HGlo (FRET ratio) to metabolite (D2HGlo): did not respond

O=CC[C@@H](O)[C@H](O)[C@H](O)CO [2-DG, 2-Deoxy-D-glucose]
acute change of Cyto-D2HGlo FRET ratio ([1]; 2-DG 10 mM): unaffected
concentration of D-2-HG in the supernatant ([2]; 2-DG 10 mM): reduced to levels comparable to untreated wildtype cells
acute change of Cyto-D2HGlo FRET ratio ([3]; 2-DG 10 mM, approximately 5.5 min): reduced the FRET ratio

CN(C)c1ccc(C2Nc3ccc4ccccc4c3C3=C2C(=O)CC(C)(C)C3)cc1Br (stereo not drawn) [Compound 968]
acute change of Cyto-D2HGlo FRET ratio ([1]; Compound 968 1 µM): did not elicit any changes
D-2-HG accumulation in cell culture supernatants ([2]; Compound 968 1 µM, wildtype and mutant cells (Fig. 5d)): nor did it effect D-2-HG accumulation
acute change of Cyto-D2HGlo FRET ratio ([3]; Compound 968 1 µM, approximately 5.5 min): did not elicit any changes

C[C@H](O)C(=O)[O-].[Na+] [Lactate, sodium L-lactate]
response of D2HGlo (FRET ratio) to metabolite (D2HGlo): did not respond

CC(=O)C(=O)O [Pyruvate, Sodium pyruvate]
response of D2HGlo (FRET ratio) to metabolite (D2HGlo): did not respond

O=C(O)CN(CCN(CC(=O)O)CC(=O)O)CC(=O)O [EDTA]
effect on D-2-HG induced FRET response of D2HGlo (D2HGlo; 1 mM EDTA in titration buffer): prevents D-2-HG induced changes to FRET ratio

N#Cc1ccnc(N2C(=O)CC[C@H]2C(=O)N(c2cncc(F)c2)[C@H](C(=O)NC2CC(F)(F)C2)c2ccccc2Cl)c1 [AG-120]
D-2-HG levels (FRET ratio) ([1]; AG-120 3 µM, 48 h): no effect
D-2-HG concentration of supernatant ([2]; AG-120 3 µM): 2.88 ± 0.59 µM
average FRET ratio of Cyto-, Nuc- and Mito-D2HGlo (D-2-HG level) ([3]; AG-120 3 µM, 48 h): reduced the average FRET ratio in all three compartments in IDH1 mutant cells to levels comparable with IDH1 wildtype cells; also recorded: decrease to levels resembling those found in IDH1 wildtype cells
acute change of Cyto-D2HGlo FRET ratio ([3]; AG-120 10 μM, 15 min following drug addition): did not result in acute changes
2-HG levels in patients (mutant IDH1): reduction of 2-HG to levels resembling those seen in healthy populations
